Source: ChEMBL document CHEMBL5030530, “Design, synthesis, and cholinesterase inhibition assay of liquiritigenin derivatives as anti-Alzheimer's activity” (Bioorg Med Chem Lett, 2021)
Calls of active or inactive are those of the source. The calls are words filed in the database; no cut-off is given here.

Key:
[1] = target: Acetylcholinesterase (Electrophorus electricus, UniProt O42275); assay: Inhibition of electric eel AChE using acetylthiocholine iodide as substrate incubated for 15 to 20 mins by Ellman's method
[2] = target: Cholinesterase (Equus caballus, UniProt P81908); assay: Inhibition of equine serum BuChE using butyrylthiocholine chloride as substrate incubated for 15 to 20 mins by Ellman's method; type: cell-free
[3] = Selectivity index, ratio of IC50 for equine serum BuChE using butyrylthiocholine chloride as substrate to IC50 for electric eel AChE using acetylthiocholine iodide as substrate incubated for 15 to 20 mins by Ellman's method; conditions: time 15-20 min
[4] = Antioxidant activity assessed as ABTS radical scavenging activity; type: functional
[5] = Cytotoxicity against human PBMC assessed as reduction in cell viability; type: ADME, tissue-based
[6] = tested on: HepG2; assay: Cytotoxicity against human HepG2 cells assessed as reduction in cell viability; type: ADME, cell-based
[7] = target: Acetylcholinesterase (Electrophorus electricus) (UniProt O42275); assay: Mixed type inhibition of electric eel AChE assessed as increase in Km at 3.2 to 12.8 uM using varying levels of acetylthiocholine iodide as substrate by Lineweaver-Burk plot analysis; conditions: dose 3.2-12.8 µM
[8] = target: Acetylcholinesterase (Electrophorus electricus) (UniProt O42275); assay: Mixed type inhibition of electric eel AChE assessed as decrease in Vmax at 3.2 to 12.8 uM using varying levels of acetylthiocholine iodide as substrate by Lineweaver-Burk plot analysis; conditions: dose 3.2-12.8 µM

Sequence of Cholinesterase (P81908 whole entry): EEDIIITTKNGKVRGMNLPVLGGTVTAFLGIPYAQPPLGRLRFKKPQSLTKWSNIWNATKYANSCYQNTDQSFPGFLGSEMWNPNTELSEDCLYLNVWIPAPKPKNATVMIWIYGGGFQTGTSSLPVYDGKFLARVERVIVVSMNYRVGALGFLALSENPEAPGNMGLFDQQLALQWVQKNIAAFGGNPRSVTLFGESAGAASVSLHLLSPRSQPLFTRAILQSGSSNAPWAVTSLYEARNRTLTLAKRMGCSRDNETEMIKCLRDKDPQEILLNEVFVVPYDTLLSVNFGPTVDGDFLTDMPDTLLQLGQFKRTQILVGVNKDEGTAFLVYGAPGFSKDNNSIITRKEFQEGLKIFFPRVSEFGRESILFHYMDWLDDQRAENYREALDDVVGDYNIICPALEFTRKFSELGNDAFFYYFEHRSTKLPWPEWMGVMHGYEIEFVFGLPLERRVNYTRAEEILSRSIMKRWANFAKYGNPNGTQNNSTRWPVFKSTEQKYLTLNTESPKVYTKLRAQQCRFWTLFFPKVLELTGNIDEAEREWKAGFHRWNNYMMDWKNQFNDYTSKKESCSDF
Sequence of Acetylcholinesterase (O42275 whole entry): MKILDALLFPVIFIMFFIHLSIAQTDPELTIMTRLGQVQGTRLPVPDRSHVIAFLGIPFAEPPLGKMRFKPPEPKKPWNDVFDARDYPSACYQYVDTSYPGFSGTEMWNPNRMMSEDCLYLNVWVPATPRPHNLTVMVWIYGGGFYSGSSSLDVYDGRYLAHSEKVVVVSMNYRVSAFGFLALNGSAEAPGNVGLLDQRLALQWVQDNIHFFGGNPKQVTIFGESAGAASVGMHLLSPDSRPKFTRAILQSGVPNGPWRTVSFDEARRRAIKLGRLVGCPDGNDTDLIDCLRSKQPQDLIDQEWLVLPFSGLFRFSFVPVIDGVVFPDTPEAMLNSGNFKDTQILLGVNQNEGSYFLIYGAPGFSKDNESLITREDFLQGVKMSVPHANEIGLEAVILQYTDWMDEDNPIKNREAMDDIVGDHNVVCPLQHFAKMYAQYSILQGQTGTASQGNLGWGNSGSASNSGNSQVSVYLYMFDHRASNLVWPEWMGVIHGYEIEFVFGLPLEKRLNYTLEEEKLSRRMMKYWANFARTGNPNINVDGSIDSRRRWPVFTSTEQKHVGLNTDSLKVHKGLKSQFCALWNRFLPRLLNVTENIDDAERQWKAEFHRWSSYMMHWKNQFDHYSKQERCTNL
Sequence of Acetylcholinesterase (Electrophorus electricus) (O42275 24-633 limits assumed): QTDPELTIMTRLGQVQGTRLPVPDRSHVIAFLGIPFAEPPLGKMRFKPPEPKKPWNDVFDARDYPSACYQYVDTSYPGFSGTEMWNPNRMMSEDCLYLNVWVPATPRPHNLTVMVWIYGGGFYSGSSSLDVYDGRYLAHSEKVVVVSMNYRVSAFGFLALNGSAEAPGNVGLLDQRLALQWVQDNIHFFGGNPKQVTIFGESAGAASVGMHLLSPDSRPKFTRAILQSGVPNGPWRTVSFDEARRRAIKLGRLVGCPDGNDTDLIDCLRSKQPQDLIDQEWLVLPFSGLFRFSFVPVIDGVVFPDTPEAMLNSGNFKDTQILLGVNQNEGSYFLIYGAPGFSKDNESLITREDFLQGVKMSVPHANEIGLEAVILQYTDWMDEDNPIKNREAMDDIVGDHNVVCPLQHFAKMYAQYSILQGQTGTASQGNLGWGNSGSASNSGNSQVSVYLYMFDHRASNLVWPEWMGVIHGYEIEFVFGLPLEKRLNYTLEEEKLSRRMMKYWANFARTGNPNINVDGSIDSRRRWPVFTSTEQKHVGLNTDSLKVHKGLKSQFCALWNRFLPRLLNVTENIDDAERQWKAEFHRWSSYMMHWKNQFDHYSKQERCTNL

| SMILES | IC50 [1] | IC50 [2] | Ratio IC50 [3] | IC50 [4] | IC50 [5] | IC50 [6] | inhibition [7] | inhibition [8] |
| --- | --- | --- | --- | --- | --- | --- | --- | --- |
| CC(C)=CCOc1ccc2c(c1)OC(c1ccc(Cl)cc1)CC2=O (centres undefined) | 2.12 µM | 4.22 µM | 1.99 | 6.97 µM | – | – | – | – |
| CC(C)=CCOc1ccc2c(c1)OC(c1ccc(Br)cc1)CC2=O (centres undefined) | 0.77 µM | 3.87 µM | 5.03 | 8.12 µM | – | – | – | – |
| CC(C)=CCOc1ccc2c(c1)OC(c1ccccc1Cl)CC2=O (centres undefined) | 3.17 µM | 5.37 µM | 1.69 | 8.02 µM | – | – | – | – |
| CC(C)=CCOc1cc(O)c2c(c1)OC(c1ccc(C)cc1)CC2=O (centres undefined) | 1 µM | 6.54 µM | 6.54 | 4.36 µM | – | – | – | – |
| CC(C)=CCOc1ccc2c(c1)OC(c1cccc(Cl)c1)CC2=O (centres undefined) | 1.5 µM | 3.59 µM | 2.39 | 6.3 µM | – | – | – | – |
| CC(C)=CCOc1cc(O)c2c(c1)OC(c1ccc(Cl)cc1Cl)CC2=O (centres undefined) | 1.04 µM | 6.94 µM | 6.67 | 3.34 µM | – | – | – | – |
| CC(C)=CCOc1cc(O)c2c(c1)OC(c1ccccc1)CC2=O (centres undefined) | 3.04 µM | 6.54 µM | 2.15 | 7.32 µM | – | – | – | – |
| CC(C)=CCOc1cc(O)c2c(c1)OC(c1ccc(C)cc1C)CC2=O (centres undefined) | 0.72 µM | 3.92 µM | 5.44 | 6.38 µM | – | – | – | – |
| CC(C)=CCOc1cc(O)c2c(c1)OC(c1ccc(Br)cc1)CC2=O (centres undefined) | 0.11 µM | 6.04 µM | 54.9 | 2.77 µM | > 100 µM | > 80 µM | – | – |
| COc1ccc(C2CC(=O)c3c(O)cc(OCC=C(C)C)cc3O2)c(OC)c1 (centres undefined) | 0.09 µM | 5.46 µM | 60.7 | 2.32 µM | > 100 µM | > 100 µM | Active | Active |
| CC(C)=CCOc1ccc2c(c1)OC(c1ccccc1)CC2=O (centres undefined) | 5.32 µM | 9.54 µM | 1.79 | 6.07 µM | – | – | – | – |
| CC(C)=CCOc1ccc2c(c1)OC(c1ccc(C)cc1C)CC2=O (centres undefined) | 0.94 µM | 3.42 µM | 3.64 | 8.26 µM | – | – | – | – |
| COc1ccc(C2CC(=O)c3ccc(OCC=C(C)C)cc3O2)cc1 (centres undefined) | 0.63 µM | 4.54 µM | 7.21 | 10.2 µM | – | – | – | – |
| CC(C)=CCOc1cc(O)c2c(c1)OC(c1ccccc1F)CC2=O (centres undefined) | 1.27 µM | 7.37 µM | 5.8 | 5.3 µM | – | – | – | – |
| CC(C)=CCOc1cc(O)c2c(c1)OC(c1cccc(Br)c1)CC2=O (centres undefined) | 0.82 µM | 5.22 µM | 6.37 | 4.04 µM | – | – | – | – |
| CC(C)=CCOc1cc(O)c2c(c1)OC(c1ccc(O)cc1)CC2=O (centres undefined) | 2.37 µM | 5.38 µM | 2.27 | 5.34 µM | – | – | – | – |
| COc1ccc(C2CC(=O)c3ccc(OCC=C(C)C)cc3O2)c(OC)c1 (centres undefined) | 0.37 µM | 5.65 µM | 15.3 | 8.18 µM | – | – | – | – |

| SMILES | IC50 [1] | IC50 [2] | Ratio IC50 [3] | IC50 [4] | IC50 [5] | IC50 [6] | inhibition [7] | inhibition [8] |
| --- | --- | --- | --- | --- | --- | --- | --- | --- |
| CC(C)=CCOc1ccc2c(c1)OC(c1cccc(Br)c1)CC2=O (centres undefined) | 1.84 µM | 4.5 µM | 2.45 | 5.28 µM | – | – | – | – |
| O=C1C[C@@H](c2ccc(O)cc2)Oc2cc(O)ccc21 [LIQUIRTIGENIN] | 9.1 µM | 14 µM | 1.55 | 8.96 µM | – | – | – | – |
| CC(C)=CCOc1cc(O)c2c(c1)OC(c1cccc(F)c1)CC2=O (centres undefined) | 0.92 µM | 5.09 µM | 5.53 | 7.24 µM | – | – | – | – |
| CC(C)=CCOc1ccc2c(c1)OC(c1ccccc1Br)CC2=O (centres undefined) | 2.02 µM | 5.02 µM | 2.49 | 3.18 µM | – | – | – | – |
| CC(C)=CCOc1ccc2c(c1)OC(c1ccc(C)cc1)CC2=O (centres undefined) | 1.12 µM | 4.09 µM | 3.65 | 4.44 µM | – | – | – | – |
| CC(C)=CCOc1ccc2c(c1)OC(c1ccc(Cl)cc1Cl)CC2=O (centres undefined) | 1.33 µM | 3.47 µM | 2.61 | 5.26 µM | – | – | – | – |
| CC(C)=CCOc1ccc2c(c1)OC(c1cccc(F)c1)CC2=O (centres undefined) | 1.48 µM | 4.02 µM | 2.72 | 4.28 µM | – | – | – | – |
| CC(C)=CCOc1cc(O)c2c(c1)OC(c1ccc(F)cc1)CC2=O (centres undefined) | 0.24 µM | 6.84 µM | 28.5 | 6.06 µM | – | – | – | – |
| CC(C)=CCOc1cc(O)c2c(c1)OC(c1cccc(Cl)c1)CC2=O (centres undefined) | 0.99 µM | 6.82 µM | 6.89 | 6.06 µM | – | – | – | – |
| CC(C)=CCOc1ccc2c(c1)OC(c1ccccc1F)CC2=O (centres undefined) | 1.92 µM | 5.47 µM | 2.85 | 6.36 µM | – | – | – | – |
| CC(C)=CCOc1cc(O)c2c(c1)OC(c1ccccc1Cl)CC2=O (centres undefined) | 2.14 µM | 7.54 µM | 3.52 | 4.27 µM | – | – | – | – |
| CC(C)=CCOc1ccc2c(c1)OC(c1ccc(O)cc1)CC2=O (centres undefined) | 3.09 µM | 5.02 µM | 1.62 | 6.67 µM | – | – | – | – |
| Cc1c(C)c2c(c(C)c1O)CCC(C)(C(=O)O)O2 (centres undefined) [TROLOX] | – | – | – | 6.12 µM | – | – | – | – |
| COc1ccc(C2CC(=O)c3c(O)cc(OCC=C(C)C)cc3O2)cc1 (centres undefined) | 0.27 µM | 5.77 µM | 21.4 | 5.08 µM | – | – | – | – |
| CC(C)=CCOc1cc(O)c2c(c1)OC(c1ccc(Cl)cc1)CC2=O (centres undefined) | 1.17 µM | 7.07 µM | 6.04 | 7.02 µM | – | – | – | – |
| CC(C)=CCOc1ccc2c(c1)OC(c1ccc(F)cc1)CC2=O (centres undefined) | 0.55 µM | 2.58 µM | 4.69 | 7.32 µM | – | – | – | – |
| CC(C)=CCOc1cc(O)c2c(c1)OC(c1ccccc1Br)CC2=O (centres undefined) | 1.18 µM | 3.87 µM | 3.28 | 3.82 µM | – | – | – | – |
